Experimental data from ChEMBL document CHEMBL1201862, “PubChem BioAssay data set” (2004).
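These data come from cells grown in 96-well plates and exposed to compound for 48 hours at five concentrations. At the GI50, growth is halved.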 Active and inactive are the calls of the source. Cut-off read from the data, not from the text of the source: active = GI50 up to about 1.1 µM and inactive = higher.

What was measured:
Experiment in all cases: NCI anticancer screen, dose series, 48 h
MDA-MB-231 = system: MDA-MB-231
A498 = system: A498
OVCAR-8 = system: OVCAR-8
HL-60 = system: HL-60
SK-OV-3 = system: SK-OV-3
ACHN = system: ACHN
NCI-H522 = system: NCI-H522
NCI-H460 = system: NCI-H460
MOLT-4 = system: MOLT-4
HOP-92 = system: HOP-92
K562 = system: K562
MCF7 = system: MCF7
NCI-H23 = system: NCI-H23
SK-MEL-28 = system: SK-MEL-28
SNB-19 = system: SNB-19
OVCAR-4 = system: OVCAR-4
HCC 2998 = system: HCC 2998
RPMI-8226 = system: RPMI-8226
SK-MEL-5 = system: SK-MEL-5
T47D = system: T47D
CCRF-CEM = system: CCRF-CEM
KM12 = system: KM12
MDA-MB-435 = system: MDA-MB-435
786-0 = system: 786-0
UO-31 = system: UO-31
RXF 393 = system: RXF 393
COLO 205 = system: COLO 205
CAKI-1 = system: CAKI-1
A549 = system: A549
SW-620 = system: SW-620
SF-268 = system: SF-268
HCT-15 = system: HCT-15
U-251 = system: U-251
SF-539 = system: SF-539
SR = system: SR
SNB-75 = system: SNB-75
OVCAR-5 = system: OVCAR-5
UACC-62 = system: UACC-62
EKVX = system: EKVX
DU-145 = system: DU-145
Hs-578T = system: Hs-578T
HT-29 = system: HT-29
SK-MEL-2 = system: SK-MEL-2
HCT-116 = system: HCT-116
BT-549 = system: BT-549
UACC-257 = system: UACC-257
PC-3 = system: PC-3
OVCAR-3 = system: OVCAR-3
IGROV-1 = system: IGROV-1
SF-295 = system: SF-295
NCI/ADR-RES = system: NCI/ADR-RES
TK-10 = system: TK-10
NCI-H226 = system: NCI-H226
Malme-3M = system: Malme-3M
SN12C = system: SN12C
M14 = system: M14
HOP-62 = system: HOP-62

`Cc1sc(N)c(S(=O)(=O)c2ccccc2)c1C` was tested. Which GI50 (MDA-MB-231) did it give?
The GI50 was > 100 µM (inactive).

And the GI50 (A498)?
Its GI50 is > 100 µM (inactive).

And the GI50 (OVCAR-8)?
The GI50 was > 100 µM (inactive).

And the GI50 (HL-60)?
Its GI50 is > 100 µM (inactive).

And the GI50 (SK-OV-3)?
The GI50 was > 100 µM (inactive).

What about the GI50 (ACHN) of the same compound?
The GI50 was > 100 µM (inactive).

What about the GI50 (NCI-H522) of the same compound?
Its GI50 is > 100 µM (inactive).

What about the GI50 (NCI-H460) of the same compound?
The GI50 was > 100 µM (inactive).

What about the GI50 (MOLT-4) of the same compound?
Its GI50 is > 100 µM (inactive).

And the GI50 (HOP-92)?
The GI50 was > 100 µM (inactive).

And the GI50 (K562)?
The GI50 was > 100 µM (inactive).

What about the GI50 (MCF7) of the same compound?
Its GI50 is > 100 µM (inactive).

And the GI50 (NCI-H23)?
Its GI50 is > 100 µM (inactive).

What about the GI50 (SK-MEL-28) of the same compound?
The GI50 was > 100 µM (inactive).

And the GI50 (SNB-19)?
Its GI50 is > 100 µM (inactive).

And the GI50 (OVCAR-4)?
Its GI50 is > 100 µM (inactive).

And the GI50 (HCC 2998)?
The GI50 was > 100 µM (inactive).

What about the GI50 (RPMI-8226) of the same compound?
Its GI50 is > 100 µM (inactive).

And the GI50 (SK-MEL-5)?
Its GI50 is > 100 µM (inactive).

And the GI50 (T47D)?
Its GI50 is > 100 µM (inactive).

And the GI50 (CCRF-CEM)?
Its GI50 is > 100 µM (inactive).

What about the GI50 (KM12) of the same compound?
Its GI50 is > 100 µM (inactive).

And the GI50 (MDA-MB-435)?
The GI50 was > 100 µM (inactive).

And the GI50 (786-0)?
Its GI50 is > 100 µM (inactive).

And the GI50 (UO-31)?
Its GI50 is > 100 µM (inactive).

What about the GI50 (RXF 393) of the same compound?
Its GI50 is > 100 µM (inactive).

And the GI50 (COLO 205)?
Its GI50 is > 100 µM (inactive).

What about the GI50 (CAKI-1) of the same compound?
The GI50 was > 100 µM (inactive).

What about the GI50 (A549) of the same compound?
The GI50 was > 100 µM (inactive).

And the GI50 (SW-620)?
Its GI50 is > 100 µM (inactive).

What about the GI50 (SF-268) of the same compound?
Its GI50 is > 100 µM (inactive).

And the GI50 (HCT-15)?
The GI50 was over 100 µM.

And the GI50 (U-251)?
Its GI50 is > 100 µM (inactive).

And the GI50 (SF-539)?
The GI50 was 5.13 µM (inactive).

What about the GI50 (SR) of the same compound?
The GI50 was > 100 µM (inactive).

What about the GI50 (SNB-75) of the same compound?
The GI50 was > 100 µM (inactive).

What about the GI50 (OVCAR-5) of the same compound?
The GI50 was > 100 µM (inactive).

What about the GI50 (UACC-62) of the same compound?
The GI50 was > 100 µM (inactive).

What about the GI50 (EKVX) of the same compound?
Its GI50 is > 100 µM (inactive).

And the GI50 (DU-145)?
The GI50 was > 100 µM (inactive).

What about the GI50 (Hs-578T) of the same compound?
The GI50 was > 100 µM (inactive).

What about the GI50 (HT-29) of the same compound?
The GI50 was > 100 µM (inactive).

What about the GI50 (SK-MEL-2) of the same compound?
Its GI50 is > 100 µM (inactive).

And the GI50 (HCT-116)?
The GI50 was > 100 µM (inactive).

What about the GI50 (BT-549) of the same compound?
Its GI50 is > 100 µM (inactive).

What about the GI50 (UACC-257) of the same compound?
The GI50 was > 100 µM (inactive).

And the GI50 (PC-3)?
Its GI50 is > 100 µM (inactive).

What about the GI50 (OVCAR-3) of the same compound?
Its GI50 is 80.5 µM (inactive).

And the GI50 (IGROV-1)?
The GI50 was > 100 µM (inactive).

And the GI50 (SF-295)?
The GI50 was > 100 µM (inactive).

And the GI50 (NCI/ADR-RES)?
The GI50 was > 100 µM (inactive).

What about the GI50 (TK-10) of the same compound?
Its GI50 is > 100 µM (inactive).

What about the GI50 (NCI-H226) of the same compound?
The GI50 was > 100 µM (inactive).

What about the GI50 (Malme-3M) of the same compound?
The GI50 was > 100 µM (inactive).

And the GI50 (SN12C)?
Its GI50 is > 100 µM (inactive).

What about the GI50 (M14) of the same compound?
Its GI50 is > 100 µM (inactive).

With `CC(C)(C)c1ccc(O)c(C(O)c2cccnc2)c1` (stereo not given) as the compound, how does the GI50 (MDA-MB-231) read?
The GI50 was > 100 µM (inactive).

What about the GI50 (OVCAR-8) of the same compound?
Its GI50 is > 100 µM (inactive).

What about the GI50 (ACHN) of the same compound?
The GI50 was > 100 µM (inactive).

What about the GI50 (NCI-H522) of the same compound?
Its GI50 is > 100 µM (inactive).

And the GI50 (NCI-H460)?
The GI50 was > 100 µM (inactive).

And the GI50 (MOLT-4)?
The GI50 was > 100 µM (inactive).

What about the GI50 (K562) of the same compound?
The GI50 was 81.5 µM (inactive).

What about the GI50 (NCI-H23) of the same compound?
Its GI50 is > 100 µM (inactive).

And the GI50 (SK-MEL-28)?
Its GI50 is > 100 µM (inactive).

What about the GI50 (HCC 2998) of the same compound?
The GI50 was 76 µM (inactive).

What about the GI50 (SK-MEL-5) of the same compound?
The GI50 was 35 µM (inactive).

What about the GI50 (T47D) of the same compound?
The GI50 was 5.87 µM (inactive).

And the GI50 (CCRF-CEM)?
The GI50 was 96.6 µM (inactive).

And the GI50 (KM12)?
Its GI50 is > 100 µM (inactive).

What about the GI50 (786-0) of the same compound?
Its GI50 is > 100 µM (inactive).

What about the GI50 (UO-31) of the same compound?
The GI50 was > 100 µM (inactive).

And the GI50 (RXF 393)?
Its GI50 is > 100 µM (inactive).

And the GI50 (COLO 205)?
Its GI50 is > 100 µM (inactive).

And the GI50 (CAKI-1)?
Its GI50 is > 100 µM (inactive).

And the GI50 (A549)?
The GI50 was > 100 µM (inactive).

What about the GI50 (SW-620) of the same compound?
The GI50 was > 100 µM (inactive).

What about the GI50 (SF-268) of the same compound?
Its GI50 is > 100 µM (inactive).

And the GI50 (HCT-15)?
Its GI50 is 72.1 µM.

And the GI50 (SF-539)?
Its GI50 is > 100 µM (inactive).

And the GI50 (SNB-75)?
Its GI50 is 57 µM (inactive).

What about the GI50 (OVCAR-5) of the same compound?
Its GI50 is > 100 µM (inactive).

And the GI50 (UACC-62)?
Its GI50 is 16.6 µM (inactive).

What about the GI50 (EKVX) of the same compound?
Its GI50 is > 100 µM (inactive).

What about the GI50 (DU-145) of the same compound?
Its GI50 is > 100 µM (inactive).

And the GI50 (Hs-578T)?
The GI50 was > 100 µM (inactive).

What about the GI50 (HT-29) of the same compound?
Its GI50 is > 100 µM (inactive).

What about the GI50 (HOP-62) of the same compound?
The GI50 was > 100 µM (inactive).

And the GI50 (HCT-116)?
The GI50 was > 100 µM (inactive).

And the GI50 (BT-549)?
Its GI50 is > 100 µM (inactive).

What about the GI50 (OVCAR-3) of the same compound?
The GI50 was > 100 µM (inactive).

And the GI50 (IGROV-1)?
Its GI50 is > 100 µM (inactive).

What about the GI50 (NCI/ADR-RES) of the same compound?
The GI50 was 94.6 µM (inactive).

What about the GI50 (NCI-H226) of the same compound?
Its GI50 is > 100 µM (inactive).

And the GI50 (Malme-3M)?
The GI50 was > 100 µM (inactive).
